Experimental data published in patent US20060234944A1, “Beta-secretase inhibitors and methods of use” (Oklahoma Medical Reseach Foundation, priority 2001, published 2006).

How the values were obtained:
memapsin 2 = molecular target: T1, memapsin 2 (Homo sapiens, UniProt P56817); test: Inhibition of memapsin 2 cleavage of fluorogenic substrate FS-2 (Ki, Ki apparent, Vi/Vo, % inhibition); type: biochemical; conditions: for Ki: Table 1, apparent Ki in presence of substrate FS-2, N.I. = no inhibition, read-out: Ki app; for % Inh (M1/M2): Table 9, ratio of % inhibition memapsin 1 / memapsin 2, 1 or less = greater inhibition of memapsin 2
T1 construct: made in house; host or cells: E. coli
T1 sequence (P56817 41-454): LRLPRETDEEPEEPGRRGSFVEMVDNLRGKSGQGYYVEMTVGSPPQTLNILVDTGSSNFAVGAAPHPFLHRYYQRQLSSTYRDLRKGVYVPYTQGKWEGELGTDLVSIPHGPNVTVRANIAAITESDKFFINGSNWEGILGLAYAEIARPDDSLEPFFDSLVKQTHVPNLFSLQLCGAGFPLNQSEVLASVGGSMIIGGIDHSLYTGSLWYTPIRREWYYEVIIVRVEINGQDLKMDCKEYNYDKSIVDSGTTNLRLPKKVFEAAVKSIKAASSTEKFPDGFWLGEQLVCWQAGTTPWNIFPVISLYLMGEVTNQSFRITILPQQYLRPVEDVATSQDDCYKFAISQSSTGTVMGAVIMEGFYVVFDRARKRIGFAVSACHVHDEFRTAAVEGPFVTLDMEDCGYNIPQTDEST
Description: Ki is the inhibition equilibrium constant which indicates the ability of compounds to inhibit the β-secretase activity of memapsin 2 and memapsin 1. […] The K1 value is independent of the substrate, and converted from Ki apparent.
The Vi/Vo values depicted in Table 1 were determined at conditions under which the enzyme and inhibitor concentrations were equal (e.g., about 80 nM, 100 nM).
The relationship of Ki (independent of substrate concentration) to Kiapp is a function of substrate concentration in the assay and the Km for cleavage of the substrate by either memapsin 1 or memapsin 2 by the relationship: Kiapp=Ki(1+[S]/Km).
Ki is the inhibition equilibrium constant which indicates the ability of compounds to inhibit the β-secretase activity of memapsin 2 and memapsin 1. […] The Ki value is independent of the substrate, and converted from Ki apparent.
An aliquot of the inhibitor of known concentration in DMSO was diluted into 1.8 ml 0.1 M NaOAc, pH 4.0. DMSO and added to a final concentration of 10% (v/v), and memapsin 2 (final concentration of 80 nM), followed by a 20 minute equilibration at 37° C. Compounds were evaluated for the ability to inhibit memapsin 1 and memapsin 2 at concentrations between about 10 nM and about 10 μm of inhibitor.
The relationship of Ki (independent of substrate concentration) to Kiapp is a function of substrate concentration in the assay and the Km for cleavage of the substrate by either memapsin 1 or memapsin 2 by the relationship: Kiapp=Ki (1+[S]/Km).

plasma Aβ40 = test: Inhibition of Aβ production in APP/F transgenic mouse model of Alzheimer's disease (plasma Aβ40 sandwich ELISA); type: in vivo, mice; conditions: for Reduction of plasma Aβ40 / Course of inhibition of plasma Aβ40 over a 24-h period: APP/F mice; for Reduction of plasma Aβ40: about 163 nanomoles i.p., within 30 minutes following injection; for Course of inhibition of plasma Aβ40 over a 24-h period: single i.p. injection; for Blood brain barrier penetration in transgenic mice: concluded from reduction of plasma Aβ
Description: Compounds MMI-138, MMI-165, and MMI-185 were synthesized as described above. Compounds were dissolved in 1 ml of dimethyl sulfoxide (DMSO) to a final concentration of about 1 mg/ml for MMI-165 and MMI-185, and about 10 mg/ml for MMI-138. […] Inhibitors were diluted into PBS or H2O immediately prior to injection, as described below. Inhibition constants were determined by methods described by Ermolieff, et al (Biochem. 39:12450-12456 (2000), the teachings of which are incorporated hereby in their entirety).
The tg2576 strain of mice was obtained from Taconic (Germantown, N.Y.). The APP/F strain of mice were obtained by mating the tg2576 mice with the FVB/N strain. To determine presence of the Swedish APP gene in APP/F mice, the DNA from mice was isolated according to the Qiagen Dneasy™ Tissue Kit. PCR (Qiagen kit and protocol) was used to amplify the fragment of DNA corresponding to the human Swedish APP gene. The following primers were used: […]
At the age of three months, animals of the Alzheimer's disease mouse model APP/F were injected intraperitoneally (i.p.) with about 163 nanomoles of either compounds MMI-138 (molecular weight 674 g/mole; 110 μg per animal, n=2), MMI-165 (molecular weight 626 g/mole; 102 μg per animal, n—2), or MMI-185 (molecular weight 686; 112 μg per animal, n—2).
Heparinized capillary tubes collected blood samples from anesthetized animals from either the retro-orbital sinus or from the saphenous vein at specified intervals following injection. The blood samples were transferred to sterile 1.5 mL microcentrifuge tubes, centrifuged at 5,100 RPM for 10 minutes to recover the plasma (supernatant), and stored at −70° C. until analysis for the Aβ40 by Enzyme Linked-Immuno-Sorbent Assay (ELISA).
A sandwich ELISA (BioSource International, Camarillo, Calif.) was used to determine the levels of Aβ40 in plasma samples. The ELISA utilizes a primary antibody specific for human Aβ for the immobilization of the amino-terminus and a detection antibody specific for the carboxy-terminal amino acids of Aβ40. A conjugated secondary antibody was used to detect the ternary complex, using a stabilized chromogen substrate, quantifiable following addition of 1 M HCl, with the optical densities measured at 450 nm. The procedures were followed according to the BioSource protocol. Optical densities were converted to pg/ml quantities of Aβ40 using a linear regression of the optical densities of standards obtained from the commercial kit, to their known concentrations.

CC(C)C[C@H](NC(=O)OC(C)(C)C)[C@@H](O)C[C@@H](C)C(=O)N[C@@H](C)C(=O)NCc1ccccc1 [MMI-001]
Ki (memapsin 2): 3740 µM

CSCC[C@H](NC(=O)[C@H](C)NC(=O)[C@H](C)C[C@H](O)[C@H](CC(C)C)NC(=O)OC(C)(C)C)C(=O)NCc1ccccc1 [MMI-002]
Ki (memapsin 2): 431 µM

CC(C)C[C@H](NC(=O)OC(C)(C)C)[C@@H](O)C[C@@H](C)C(=O)N[C@@H](C)C(=O)N[C@@H](CCS(C)(=O)=O)C(=O)NCc1ccccc1 [MMI-003]
Ki (memapsin 2): 2620 µM

CSCC[C@H](NC(=O)[C@@H](NC(=O)OC(C)(C)C)C(C)C)C(=O)N[C@@H](CC(C)C)[C@@H](O)C[C@@H](C)C(=O)N[C@H]1c2ccccc2C[C@H]1O [MMI-046]
Ki (memapsin 2): 150 µM

CC(C)C[C@H](NC(=O)[C@H](CCS(C)(=O)=O)NC(=O)[C@@H](NC(=O)OC(C)(C)C)C(C)C)[C@@H](O)C[C@@H](C)C(=O)N[C@H]1c2ccccc2C[C@H]1O [MMI-047]
Ki (memapsin 2): 111 µM

CC(C)C[C@H](NC(=O)[C@H](CCO)NC(=O)c1cnc2ccccc2c1)[C@@H](O)C[C@@H](C)C(=O)N[C@H](C(=O)N[C@H]1c2ccccc2C[C@H]1O)C(C)C [MMI-049]
Ki (memapsin 2): 198 µM

CCC(C)[C@H](NC(=O)[C@H](C)C[C@H](O)[C@H](CC(C)C)NC(=O)[C@H](CCO)NC(=O)c1cnc2ccccc2c1)C(=O)N[C@H]1c2ccccc2C[C@H]1O (stereo partly shown) [MMI-050]
Ki (memapsin 2): 146 µM

CC(C)C[C@H](NC(=O)[C@H](CCS(C)(=O)=O)NC(=O)[C@@H](NC(=O)OC(C)(C)C)C(C)C)[C@@H](O)C[C@@H](C)C(=O)N[C@@H]1c2ccccc2C[C@@H]1O [MMI-054]
Ki (memapsin 2): 469 µM

CSCC[C@H](NC(=O)[C@@H](NC(=O)OC(C)(C)C)C(C)C)C(=O)N[C@@H](CC(C)C)[C@@H](O)C[C@@H](C)C(=O)N[C@H]1CCCC[C@@H]1O [MMI-055]
Ki (memapsin 2): 631 µM

CC(C)C[C@H](NC(=O)[C@H](CCS(C)(=O)=O)NC(=O)[C@@H](NC(=O)OC(C)(C)C)C(C)C)[C@@H](O)C[C@@H](C)C(=O)N[C@@H]1CCCC[C@@H]1O [MMI-058]
Ki (memapsin 2): 408 µM

CC(C)C[C@H](NC(=O)[C@H](CCS(C)(=O)=O)NC(=O)[C@@H](NC(=O)OC(C)(C)C)C(C)C)[C@@H](O)C[C@@H](C)C(=O)N[C@@H]1CCCC[C@@H]1O [MMI-060]
Ki (memapsin 2): 101 µM

CSCC[C@H](NC(=O)[C@@H](NC(=O)OC(C)(C)C)C(C)C)C(=O)N[C@@H](CC(C)C)[C@@H](O)CN(C)C(=O)[C@H](NC(=O)OCc1ccccc1)C(C)C [MMI-061]
Ki (memapsin 2): 15500 µM

CC(C)C[C@H](NC(=O)[C@H](CCS(C)(=O)=O)NC(=O)[C@@H](NC(=O)OC(C)(C)C)C(C)C)[C@@H](O)C[C@@H](C)C(=O)N[C@@H](C(=O)NCc1ccccc1)[C@@H](C)O [MMI-073]
% Inh (M1/M2) (memapsin 2): 0.73

CSCC[C@H](NC(=O)[C@@H](NC(=O)OC(C)(C)C)C(C)C)C(=O)N[C@@H](CC(C)C)[C@@H](O)C[C@@H](CO)C(=O)N[C@H](C(=O)NCc1ccccc1)C(C)C [MMI-078]
% Inh (M1/M2) (memapsin 2; listed as 78): 0.76

Cc1c(O)cccc1C(=O)N[C@@H](C(C)C)[C@@H](O)N[C@@H](CCS(C)(=O)=O)C(=O)N[C@@H](CC(C)C)[C@@H](O)C[C@@H](C)C(=O)N[C@@H](CC(C)C)C(=O)NCc1ccccc1 [MMI-122]
Vi/Vo (memapsin 2; ratio of initial cleavage velocities of FS-2 with/without compound, enzyme and inhibitor concentrations equal (e.g., about 80 nM, 100 nM)): 1.17

CSCC[C@H](NC(=O)[C@@H](NC(=O)OC(C)(C)C)C(C)C)C(=O)N[C@@H](CC(C)C)[C@@H](O)C[C@@H](C)C(=O)N[C@@H](C(C)C)C1CCCCO1 (stereo partly shown) [MMI-130]
Ki (memapsin 2): 110 µM

CSCC[C@H](NC(=O)[C@@H](NC(=O)OC(C)(C)C)C(C)C)C(=O)N[C@@H](CC(C)C)[C@@H](O)C[C@@H](CO)C(=O)N[C@H](C(=O)NCc1ccccc1)C(C)C [MMI-132]
% Inh (M1/M2) (memapsin 2): 1.30

CSCC[C@H](NC(=O)OCn1nc(C)cc1C)C(=O)N[C@@H](CC(C)C)[C@@H](O)C[C@@H](C)C(=O)N[C@H](C(=O)NCc1ccccc1)C(C)C [MMI-138]
% Inh (M1/M2) (memapsin 2): 0.10 | Ki for memapsin 2 lower than Ki for memapsin 1 (selectivity) (memapsin 2; memapsin 2 relative to memapsin 1, stated in text): about 60 fold | Reduction of plasma Aβ40 (plasma Aβ40): 57% | Course of inhibition of plasma Aβ40 over a 24-h period (plasma Aβ40): remained nearly constant | Blood brain barrier penetration in transgenic mice (plasma Aβ40): penetrated the blood brain barrier

Cc1cc(C)n(COC(=O)N[C@@H](CCS(C)(=O)=O)C(=O)N[C@@H](CC(C)C)[C@@H](O)C[C@@H](C)C(=O)N[C@H](C(=O)NCc2ccccc2)C(C)C)n1 [MMI-139]
% Inh (M1/M2) (memapsin 2): 0

CSCC[C@H](NC(=O)OCn1nc(C)cc1C)C(=O)N[C@@H](CC(C)C)[C@@H](O)C[C@@H](C)C(=O)N[C@H](C(=O)NCC(C)C)C(C)C [MMI-156]
% Inh (M1/M2) (memapsin 2): 0.47

CSCC[C@H](NC(=O)OCn1nc(C)cc1C)C(=O)N[C@@H](CC(C)C)[C@@H](O)C[C@@H](C)C(=O)N[C@H](C(=O)NC(C)C)C(C)C [MMI-165]
% Inh (M1/M2) (memapsin 2): 0.45 | Reduction of plasma Aβ40 (plasma Aβ40): 46% | Course of inhibition of plasma Aβ40 over a 24-h period (plasma Aβ40): remained nearly constant | Blood brain barrier penetration in transgenic mice (plasma Aβ40): penetrated the blood brain barrier

CCCCNC(=O)[C@@H](NC(=O)[C@H](C)C[C@H](O)[C@H](CC(C)C)NC(=O)[C@H](CCSC)NC(=O)OCn1nc(C)cc1C)C(C)C [MMI-167]
% Inh (M1/M2) (memapsin 2): 0.18

CSCC[C@H](NC(=O)OCn1nc(C)cc1C)C(=O)N[C@@H](CC(C)C)[C@@H](O)C[C@@H](C)C(=O)N[C@@H](CC(C)C)C(=O)NC(CF)CF [MMI-171]
% Inh (M1/M2) (memapsin 2): 0.18

CSCC[C@H](NC(=O)OCCn1nc(C)cc1C)C(=O)N[C@@H](CC(C)C)[C@@H](O)C[C@@H](C)C(=O)N[C@@H](CC(C)C)C(=O)NCC(C)C [MMI-176]
% Inh (M1/M2) (memapsin 2): 0

CSCC[C@H](NC(=O)OCCn1nc(C(C)C)cc1C(C)C)C(=O)N[C@@H](CC(C)C)[C@@H](O)C[C@@H](C)C(=O)N[C@H](C(=O)NCC(C)C)C(C)C [MMI-180]
% Inh (M1/M2) (memapsin 2): 0

CSCC[C@H](NC(=O)OCn1nc(C)cc1C)C(=O)N[C@@H](CC(C)C)[C@@H](O)C[C@]1(C)CCN([C@@H](CC(C)C)C(=O)NCC(C)C)C1=O [MMI-181]
% Inh (M1/M2) (memapsin 2): 0.19

CCCCNC(=O)[C@H](C(C)C)N1CC[C@@](C)(C[C@H](O)[C@H](CC(C)C)NC(=O)[C@H](CCSC)NC(=O)OCn2nc(C)cc2C)C1=O [MMI-182]
% Inh (M1/M2) (memapsin 2): 0

COCC[C@H](NC(=O)[C@H](CC(C)C)NC(=O)OC(C)(C)C)C(=O)N[C@@H](CC(C)C)[C@@H](O)C[C@@H](C)C(=O)N[C@@H](CC(C)C)C(=O)NC(C)C [MMI-185]
Reduction of plasma Aβ40 (plasma Aβ40): 63% | Course of inhibition of plasma Aβ40 over a 24-h period (plasma Aβ40): appeared to return to initial level | Blood brain barrier penetration in transgenic mice (plasma Aβ40): penetrated the blood brain barrier
